Test results as given in US10434083B2, “Transmammary delivery of cyclooxygenase-2 inhibitors for analgesia in neonates” (Iowa State University Research Foundation, Inc., priority 2018, dated 2019).
“Also recorded” adds a separate entry of the source.

Tests used:
plasma cortisol = assay: Plasma cortisol concentrations in piglets after processing (castration, tail docking, teeth clipping); type: in vivo, swine
Description: Castration, teeth clipping, and tail docking were completed for each male piglet between the 6-h and 8-h blood collection time points. […] Castration was performed using a number 10 scalpel blade to making two vertical incisions approximately 2-3 cm long in the skin covering the testicles. The testicles were then marsupialized, and manual pressure was applied to the spermatic cord until it separated from the piglet's body. Side-cutter pliers were used to remove the tail at the 6th coccygeal vertebral body, and the canine teeth were filed flush with the gingival tissue.
To accommodate blood volume restrictions, blood samples for cortisol determination were collected from three randomly selected piglets/litter (two male and one female piglet at each time point) prior to processing (6 h after firocoxib injection in the sow) and after processing at approximately […] after drug injection in the sow. These time points corresponded to approximately 0, 2, 6, 18, 42, 66 and 90 h after processing. The blood for cortisol analysis was collected in 3-mL heparinized blood collection tubes (BD Vacutainer, Franklin Lakes, N.J.) and then centrifuged for 10 min at 1,500×g. The plasma was collected, then immediately frozen and stored at −80° C. The analyses for plasma cortisol concentrations were performed within 60 d after sample collection and within 10 consecutive days once the analyses were started. Plasma cortisol concentrations were determined using a commercial radioimmunoassay kit (CortiCote I-125, MP Biomedicals, Santa Ana, Calif.). […]
Plasma cortisol concentrations and ADG were analyzed using a nonlinear mixed-effects analysis incorporating both fixed effects and random effects (PROC GLMMIX; SAS university edition v9.04.01, SAS Institute, Cary, N.C.). […]
To account for the fact that not all the piglets were blood sampled at every time point due to blood volume restrictions in piglets, individual piglet peak cortisol concentrations (CortCmax) were calculated for each piglet after processing by visual inspection of the data. […]

in vivo = conditions: female, Yorkshire×Landrace, swine
Description: Tissue concentrations of firocoxib and its descyclopropylmethyl metabolite were determined using high-pressure liquid chromatography (Agilent 1100 Pump, Column Compartment and Autosampler, Agilent Technologies, Santa Clara, Calif., USA) with mass spectrometry detection (LTQ Ion Trap, Thermo Scientific, San Jose, Calif., USA). The tissue samples analysed were muscle, injection site, kidney, liver, and fat. Eight calibration spikes were prepared in blank porcine tissue in the concentration range of 0.05-10 μg/g. The tissue samples were thawed and homogenized in a Waring blender before extraction and analysis. […]
Plasma and tissue firocoxib concentrations were determined using high-pressure liquid chromatography (Agilent 1100 Pump, Column Compartment and Autosampler, Agilent Technologies, Santa Clara, Calif.) with mass spectrometry detection (LTQ Ion Trap, Thermo Scientific, San Jose, Calif.). […] Full scan MS was used for analyte detection and three fragment ions were used for quantitation of each analyte species. […] Firocoxib and d6-firocoxib were analyzed in positive ion mode. […]
For plasma samples, the calibration curves had correlation coefficients (R^2) exceeding 0.995 across the concentration range. […] The limit of quantitation of the analysis was 1.0 ng/mL, with a limit of detection of 0.2 ng/mL. […]

In the case of `CC1(C)OC(=O)C(OCC2CC2)=C1c1ccc(S(C)(=O)=O)cc1` [firocoxib], the “mean plasma cortisol concentration at 2±1 h after processing” value (plasma cortisol; male piglets, sow dose 2.0 mg/kg vs 0.5 mg/kg (P=0.0397) and 1.0 mg/kg (P=0.0416)) was “lower mean plasma cortisol concentration”, the “peak plasma cortisol of individual piglets (CortCmax)” value (plasma cortisol; male piglets, 0.5 mg/kg (P=0.014) and 1.5 mg/kg (P=0.05) groups higher than 2.0 mg/kg) was “significant treatment effect” and the “plasma cortisol concentrations after processing, dose dependence” value (plasma cortisol; piglets nursing sows given 0.5-2.0 mg/kg IM) was “reduces plasma cortisol concentrations after processing in a dose-dependent manner; also recorded: dose-dependent reduction of plasma cortisol concentrations”. It also gave a concentration at 21 d (in vivo) of no more than 50 ng/g.
